# Biological target: T1, human glucocorticoid receptor (GR) complex (Homo sapiens, UniProt P04150)
# T1 construct: made in house; host or cells: insect expression system (baculovirus lysate)
# T1 sequence (P04150 1-777): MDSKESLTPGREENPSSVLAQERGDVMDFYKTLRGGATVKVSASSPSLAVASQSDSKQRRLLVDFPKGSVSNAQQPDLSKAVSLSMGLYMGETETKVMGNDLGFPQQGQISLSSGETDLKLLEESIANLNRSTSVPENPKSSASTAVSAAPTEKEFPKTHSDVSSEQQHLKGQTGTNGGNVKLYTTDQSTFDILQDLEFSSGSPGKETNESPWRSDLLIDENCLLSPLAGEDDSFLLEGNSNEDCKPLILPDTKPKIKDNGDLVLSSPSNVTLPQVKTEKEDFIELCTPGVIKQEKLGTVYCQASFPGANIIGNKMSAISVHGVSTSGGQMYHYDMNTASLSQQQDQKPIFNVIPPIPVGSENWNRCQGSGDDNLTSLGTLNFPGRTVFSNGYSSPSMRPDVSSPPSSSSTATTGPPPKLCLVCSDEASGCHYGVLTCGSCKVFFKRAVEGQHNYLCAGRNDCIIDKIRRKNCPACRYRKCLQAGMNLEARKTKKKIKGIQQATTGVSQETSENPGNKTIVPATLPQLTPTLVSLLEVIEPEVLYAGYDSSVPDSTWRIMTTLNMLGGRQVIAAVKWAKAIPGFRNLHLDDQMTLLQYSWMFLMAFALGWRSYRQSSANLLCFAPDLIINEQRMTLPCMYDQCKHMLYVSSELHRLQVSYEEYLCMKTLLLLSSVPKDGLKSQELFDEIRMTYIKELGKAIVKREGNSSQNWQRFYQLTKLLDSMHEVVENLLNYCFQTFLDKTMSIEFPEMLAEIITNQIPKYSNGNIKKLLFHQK
# Assay: Glucocorticoid Receptor Competitive Binding Assay (fluorescence polarization)
# Conditions: competition with TAMRA-labeled dexamethasone for binding to GR; result in words only
# Protocol: Compounds of the invention were evaluated for binding to the steroid receptor by a fluorescence polarization competitive binding assay. Detailed descriptions for preparation of recombinant glucocorticoid receptor (GR) complex used in the assay is described in Goldrick et al., U.S. provisional application No. 60/291,877, filed May 18, 2001 (corresponding to Goldrick et al., U.S. nonprovisional application No. 10/151,133, filed May 20, 2002, both incorporated herein by reference in their entirety. Preparation of the tetramethyl rhodamine (TAMRA)-labeled dexamethasone probe was accomplished using a standard literature procedure (M. Pons et al., J. Steroid Biochem., 1985, 22, pp. 267–273).
# A. Glucocorticoid Receptor Competitive Binding Assay
# Step 1. Characterization of the Fluorescent Probe
# The wavelengths for maximum excitation and emission of the fluorescent probe should first be measured. An example of such a probe is rhodamine (TAMRA)-labeled dexamethasone.
# The affinity of the probe for the steroid receptor was then determined in a titration experiment. The fluorescence polarization value of the probe in assay buffer was measured on an SLM-8100 fluorometer using the excitation and emission maximum values described above. Aliquots of expression vector lysate were added and fluorescence polarization was measured after each addition until no further change in polarization value was observed. Non-linear least squares regression analysis was used to calculate the dissociation constant of the probe from the polarization values obtained for lysate binding to the probe.
# Step 2. Screening for Inhibitors of Probe Binding
# This assay uses fluorescence polarization (FP) to quantitate the ability of test compounds to compete with tetramethyl rhodamine (TAMRA)-labeled dexamethasone for binding to a human glucocorticoid receptor (GR) complex prepared from an insect expression system. The assay buffer was: 10 mM TES, 50 mM KCl, 20 mM Na2MoO4.2H2O, 1.5 mM EDTA, 0.04% w/v CHAPS, 10% v/v glycerol, 1 mM dithiothreitol, pH 7.4. Test compounds were dissolved to 1 mM in neat DMSO and then further diluted to 10×assay concentration in assay buffer supplemented with 10% v/v DMSO. Test compounds were serially diluted at 10×assay concentrations in 10% DMSO-containing buffer in 96-well polypropylene plates. Binding reaction mixtures were prepared in 96-well black Dynex microtiter plates by sequential addition of the following assay components to each well: […] of 10×test compound solution, 85 μL of GR-containing baculovirus lysate diluted 1:170 in assay buffer, and 50 μL of 15 nM TAMRA-labeled dexamethasone. Positive controls were reaction mixtures containing no test compound; negative controls (blanks) were reaction mixtures containing 0.7 μM to 2 μM dexamethasone. The binding reactions were incubated for 1 hour at room temperature and then read for fluorescence polarization in the LJL Analyst set to 550 nm excitation and 580 nm emission, with the Rhodamine 561 dichroic mirror installed. IC50 values were determined by iterative non-linear curve fitting of the FP signal data to a 4-parameter logistic equation.
row,Compound,activity in the GR binding assay
1,"COc1ccc(F)cc1C(C)(C)CC(N)(Cc1cc2ccccc2[nH]1)C(F)(F)F (stereo not drawn) [Compound 2, 3-(5-Fluoro-2-methoxy-phenyl)-1-(1H-indol-2-ylmethyl)-3-methyl-1-trifluoromethyl-butylamine]",demonstrated activity
2,"COc1ccc(F)cc1C(C)(C)CC(N)(Cc1ccnc2ccccc12)C(F)(F)F (stereo not drawn) [Compound 12, 3-(5-Fluoro-2-methoxy-phenyl)-3-methyl-1-quinolin-4-ylmethyl-1-trifluoromethyl-butylamine]",demonstrated activity
3,"CNC(Cc1ccnc2ccccc12)(CC(C)(C)c1cc(F)ccc1OC)C(F)(F)F (stereo not drawn) [Compound 24, [3-(5-Fluoro-2-methoxy-phenyl)-3-methyl-1-quinolin-4-ylmethyl-1-trifluoromethyl-butyl]-methyl-amine]",demonstrated activity
4,"CCCNC(Cc1ccnc2ccccc12)(CC(C)(C)c1cc(F)ccc1OC)C(F)(F)F (stereo not drawn) [Compound 26, [3-(5-Fluoro-2-methoxy-phenyl)-3-methyl-1-quinolin-4-ylmethyl-1-trifluoromethyl-butyl]-propyl-amine]",demonstrated activity
5,"COc1ccc(F)cc1C(C)(C)CC(Cc1ccnc2ccccc12)(NCC(C)C)C(F)(F)F (stereo not drawn) [Compound 27, [3-(5-Fluoro-2-methoxy-phenyl)-3-methyl-1-quinolin-4-ylmethyl-1-trifluoromethyl-butyl]-isobutyl-amine]",demonstrated activity
6,"CCCCNC(Cc1ccnc2ccccc12)(CC(C)(C)c1cc(F)ccc1OC)C(F)(F)F (stereo not drawn) [Compound 28, Butyl-[3-(5-fluoro-2-methoxy-phenyl)-3-methyl-1-quinolin-4-ylmethyl-1-trifluoromethyl-butyl]-amine]",demonstrated activity

# Source: patent US7074806B2, “Glucocorticoid mimetics, methods of making them, pharmaceutical compositions, and uses thereof” (Boehringer Ingelheim Pharmaceuticals, Inc., priority 2002, dated 2006)
